Experimental data: patent US20240124427A1, “HYDROXYHETEROCYCLOALKANE-CARBAMOYL DERIVATIVES” (Idorsia Pharmaceuticals Ltd, priority 2021, published 2024)
Read-outs that look alike come from different tables or passages of the source.

Key:
human Gal-1 (hGal-1) = human Gal-1 (hGal-1) (Homo sapiens, UniProt P09382); type: binding
human Gal-3 (hGal-3) = human Gal-3 (hGal-3) (Homo sapiens (Human), UniProt P17931); test: Competitive binding assay: biotinylated hGal-3 binding to microplate-adsorbed asialofetuin (ASF)
Summary of the method: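 Spectrophotometric read-out using streptavidin-peroxidase and ABTS quantifies how much biotin-hGal-3 remains bound to microplate asialofetuin after 3 h at 4 °C with compound present. Values are means of repeated IC50 determinations.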

[1] = Activity on hGal-3, mean values of several measurements, mixture of diastereomers measured where not separated

human Gal-1 (hGal-1), sequence (P09382 2-135 limits assumed): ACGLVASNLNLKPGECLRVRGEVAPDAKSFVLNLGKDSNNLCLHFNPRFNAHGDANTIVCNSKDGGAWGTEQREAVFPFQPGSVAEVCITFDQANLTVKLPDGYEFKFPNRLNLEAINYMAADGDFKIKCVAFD
human Gal-3 (hGal-3), sequence (P17931 whole entry): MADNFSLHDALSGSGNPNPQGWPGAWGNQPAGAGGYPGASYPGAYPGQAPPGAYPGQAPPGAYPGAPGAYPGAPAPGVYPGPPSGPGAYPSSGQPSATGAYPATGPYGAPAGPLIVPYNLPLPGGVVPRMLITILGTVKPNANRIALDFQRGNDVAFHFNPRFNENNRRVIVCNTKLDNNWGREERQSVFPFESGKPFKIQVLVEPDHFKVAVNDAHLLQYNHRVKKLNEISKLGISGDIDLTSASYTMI

SMILES	IC50 (human Gal-1 (hGal-1)) [nM]	IC50 (human Gal-3 (hGal-3)) [nM]	IC50 (human Gal-3 (hGal-3); [1]) [nM]
CO[C@@H]1[C@@H](n2cc(-c3cc(F)c(C)c(F)c3)nn2)[C@@H](O)[C@@H](CO)O[C@H]1C(=O)N(c1cc(C)cc(Br)c1)[C@H]1CNC[C@@H]1O [Example 70]	1800	56	
CO[C@@H]1[C@@H](n2cc(-c3cc(F)c(F)c(F)c3)nn2)[C@@H](O)[C@@H](CO)O[C@H]1C(=O)N(c1cc(Br)cc(Br)c1)[C@H]1CN(C(C)=O)C[C@@H]1O [Example 84]	1210	70	
CO[C@@H]1[C@@H](n2cc(-c3cc(F)c(C)c(F)c3)nn2)[C@@H](O)[C@@H](CO)O[C@H]1C(=O)N(c1cc(Cl)cc(Cl)c1)[C@@H]1CN(C(C)=O)C[C@H]1O [Example 85]	13400	327	
CO[C@@H]1[C@@H](n2cc(-c3cc(F)c(Cl)c(F)c3)nn2)[C@@H](O)[C@@H](CO)O[C@H]1C(=O)N(c1cc(Cl)cc(Cl)c1)[C@@H]1CN(C(C)=O)C[C@H]1O [Example 86]	1780	64	
CO[C@@H]1[C@@H](n2cc(-c3cc(F)c(Cl)c(F)c3)nn2)[C@@H](O)[C@@H](CO)O[C@H]1C(=O)N(c1cc(Br)cc(Br)c1)[C@@H]1CN(C(C)=O)C[C@H]1O [Example 87]	1860	36	
CO[C@@H]1[C@@H](n2cc(-c3ccc(Cl)c(Cl)c3)nn2)[C@@H](O)[C@@H](CO)O[C@H]1C(=O)N(c1cc(Cl)cc(Cl)c1)[C@@H]1CN(C(C)=O)C[C@H]1O [Example 88]	657	71	
CO[C@@H]1[C@@H](n2cc(-c3cc(F)c(F)c(F)c3)nn2)[C@@H](O)[C@@H](CO)O[C@H]1C(=O)N(c1cc(Cl)cc(Cl)c1)[C@H]1CCOC[C@@H]1O [Example 99, (2R,3R,4S,5R,6R)-N-(3,5-dichlorophenyl)-5-hydroxy-6-(hydroxymethyl)-N-((3R,4S)-3-hydroxytetrahydro-2H-pyran-4-yl)-3-methoxy-4-(4-(3,4,5-trifluorophenyl)-1H-1,2,3-triazol-1-yl)tetrahydro-2H-pyran-2-carboxamide]			16
CO[C@@H]1[C@@H](n2cc(-c3cc(F)c(F)c(F)c3)nn2)[C@@H](O)[C@@H](CO)O[C@H]1C(=O)N(c1cc(Cl)cc(C#N)c1)[C@H]1CCOC[C@@H]1O [Example 100, (2R,3R,4S,5R,6R)-N-(3-chloro-5-cyanophenyl)-5-hydroxy-6-(hydroxymethyl)-N-((3R,4S)-3-hydroxytetrahydro-2H-pyran-4-yl)-3-methoxy-4-(4-(3,4,5-trifluorophenyl)-1H-1,2,3-triazol-1-yl)tetrahydro-2H-pyran-2-carboxamide]			16
CO[C@@H]1[C@@H](n2cc(-c3cc(F)c(F)c(F)c3)nn2)[C@@H](O)[C@@H](CO)O[C@H]1C(=O)N(c1cc(Br)cc(C#N)c1)[C@H]1CCOC[C@@H]1O [Example 101, (2R,3R,4S,5R,6R)-N-(3-bromo-5-cyanophenyl)-5-hydroxy-6-(hydroxymethyl)-N-((3R,4S)-3-hydroxytetrahydro-2H-pyran-4-yl)-3-methoxy-4-(4-(3,4,5-trifluorophenyl)-1H-1,2,3-triazol-1-yl)tetrahydro-2H-pyran-2-carboxamide]			14
CO[C@@H]1[C@@H](n2cc(-c3cc(F)c(F)c(F)c3)nn2)[C@@H](O)[C@@H](CO)O[C@H]1C(=O)N(c1cc(C)cc(Br)c1)[C@H]1CCOC[C@@H]1O [Example 102, (2R,3R,4S,5R,6R)-N-(3-bromo-5-methylphenyl)-5-hydroxy-6-(hydroxymethyl)-N-((3R,4S)-3-hydroxytetrahydro-2H-pyran-4-yl)-3-methoxy-4-(4-(3,4,5-trifluorophenyl)-1H-1,2,3-triazol-1-yl)tetrahydro-2H-pyran-2-carboxamide]			14
CO[C@@H]1[C@@H](n2cc(-c3cc(F)c(F)c(F)c3)nn2)[C@@H](O)[C@@H](CO)O[C@H]1C(=O)N(c1cc(Cl)cc(Cl)c1)[C@@H]1CCOC[C@H]1O [Example 103, (2R,3R,4S,5R,6R)-N-(3,5-dichlorophenyl)-5-hydroxy-6-(hydroxymethyl)-N-((3S,4R)-3-hydroxytetrahydro-2H-pyran-4-yl)-3-methoxy-4-(4-(3,4,5-trifluorophenyl)-1H-1,2,3-triazol-1-yl)tetrahydro-2H-pyran-2-carboxamide]			299
CO[C@@H]1[C@@H](n2cc(-c3cc(F)c(F)c(F)c3)nn2)[C@@H](O)[C@@H](CO)O[C@H]1C(=O)N(c1cc(C)cc(Br)c1)[C@@H]1CCOC[C@H]1O [Example 104, (2R,3R,4S,5R,6R)-N-(3-bromo-5-methylphenyl)-5-hydroxy-6-(hydroxymethyl)-N-((3S,4R)-3-hydroxytetrahydro-2H-pyran-4-yl)-3-methoxy-4-(4-(3,4,5-trifluorophenyl)-1H-1,2,3-triazol-1-yl)tetrahydro-2H-pyran-2-carboxamide]			256
CO[C@@H]1[C@@H](n2cc(-c3cc(F)c(F)c(F)c3)nn2)[C@@H](O)[C@@H](CO)O[C@H]1C(=O)N(c1cc(Cl)cc(Cl)c1)[C@H]1COCC[C@@H]1O [Example 105, (2R,3R,4S,5R,6R)-N-(3,5-dichlorophenyl)-5-hydroxy-6-(hydroxymethyl)-N-((3S,4S)-4-hydroxytetrahydro-2H-pyran-3-yl)-3-methoxy-4-(4-(3,4,5-trifluorophenyl)-1H-1,2,3-triazol-1-yl)tetrahydro-2H-pyran-2-carboxamide]			18
CO[C@@H]1[C@@H](n2cc(-c3cc(F)c(F)c(F)c3)nn2)[C@@H](O)[C@@H](CO)O[C@H]1C(=O)N(c1cc(C)cc(Br)c1)[C@H]1COCC[C@@H]1O [Example 106, (2R,3R,4S,5R,6R)-N-(3-bromo-5-methylphenyl)-5-hydroxy-6-(hydroxymethyl)-N-((3S,4S)-4-hydroxytetrahydro-2H-pyran-3-yl)-3-methoxy-4-(4-(3,4,5-trifluorophenyl)-1H-1,2,3-triazol-1-yl)tetrahydro-2H-pyran-2-carboxamide]			13
CO[C@@H]1[C@@H](n2cc(-c3cc(F)c(F)c(F)c3)nn2)[C@@H](O)[C@@H](CO)O[C@H]1C(=O)N(c1cc(Cl)cc(Cl)c1)[C@@H]1COCC[C@H]1O [Example 107, (2R,3R,4S,5R,6R)-N-(3,5-dichlorophenyl)-5-hydroxy-6-(hydroxymethyl)-N-((3R,4R)-4-hydroxytetrahydro-2H-pyran-3-yl)-3-methoxy-4-(4-(3,4,5-trifluorophenyl)-1H-1,2,3-triazol-1-yl)tetrahydro-2H-pyran-2-carboxamide]			217
CO[C@@H]1[C@@H](n2cc(-c3cc(F)c(F)c(F)c3)nn2)[C@@H](O)[C@@H](CO)O[C@H]1C(=O)N(c1cc(C)cc(Br)c1)[C@@H]1COCC[C@H]1O [Example 108, (2R,3R,4S,5R,6R)-N-(3-bromo-5-methylphenyl)-5-hydroxy-6-(hydroxymethyl)-N-((3R,4R)-4-hydroxytetrahydro-2H-pyran-3-yl)-3-methoxy-4-(4-(3,4,5-trifluorophenyl)-1H-1,2,3-triazol-1-yl)tetrahydro-2H-pyran-2-carboxamide]			315
CO[C@@H]1[C@@H](n2cc(-c3cc(F)c(F)c(F)c3)nn2)[C@@H](O)[C@@H](CO)O[C@H]1C(=O)N(c1cc(Cl)cc(Cl)c1)[C@H]1CNCC[C@@H]1O [Example 113, (2R,3R,4S,5R,6R)-N-(3,5-dichlorophenyl)-5-hydroxy-6-(hydroxymethyl)-N-((3S,4S)-4-hydroxypiperidin-3-yl)-3-methoxy-4-(4-(3,4,5-trifluorophenyl)-1H-1,2,3-triazol-1-yl)tetrahydro-2H-pyran-2-carboxamide]			13
CO[C@@H]1[C@@H](n2cc(-c3cc(F)c(F)c(F)c3)nn2)[C@@H](O)[C@@H](CO)O[C@H]1C(=O)N(c1cc(C)cc(Br)c1)[C@H]1CNCC[C@@H]1O [Example 114, (2R,3R,4S,5R,6R)-N-(3-bromo-5-methylphenyl)-5-hydroxy-6-(hydroxymethyl)-N-((3S,4S)-4-hydroxypiperidin-3-yl)-3-methoxy-4-(4-(3,4,5-trifluorophenyl)-1H-1,2,3-triazol-1-yl)tetrahydro-2H-pyran-2-carboxamide]			9
CO[C@@H]1[C@@H](n2cc(-c3cc(F)c(F)c(F)c3)nn2)[C@@H](O)[C@@H](CO)O[C@H]1C(=O)N(c1cc(C)cc(Br)c1)[C@@H]1CNCC[C@H]1O [Example 115, (2R,3R,4S,5R,6R)-N-(3-bromo-5-methylphenyl)-5-hydroxy-6-(hydroxymethyl)-N-((3R,4R)-4-hydroxypiperidin-3-yl)-3-methoxy-4-(4-(3,4,5-trifluorophenyl)-1H-1,2,3-triazol-1-yl)tetrahydro-2H-pyran-2-carboxamide]			196
